According to patent publication US4656288A, “Antibiotics, their production and use” (Takeda Chemical Industries, Ltd., priority 1984, dated 1987):
≈ marks a conversion by molar mass, not a printed value. Where a name gives a salt, the structure may show the parent alone. Each block holds one compound with its values, some of them ahead of it.

Legend:
[1] = system: Escherichia coli PG 8; experiment: Inhibition zone against test microorganism without addition of β-lactamase; format: cell-based; details: test microorganism Escherichia coli PG 8; no β-lactamase added
[2] = target: T1, Penicillinase (Bacillus cereus, UniProt P10424); experiment: Stability against β-lactamase (penicillinase), test microorganism Escherichia coli PG 8; format: biochemical; details: Penicillinase derived from Bacillus cereus, -- = No inhibition zone indicated
T1 construct: purchased Calbio Chemical Co. of U.S.A
T1 sequence (P10424 44-306): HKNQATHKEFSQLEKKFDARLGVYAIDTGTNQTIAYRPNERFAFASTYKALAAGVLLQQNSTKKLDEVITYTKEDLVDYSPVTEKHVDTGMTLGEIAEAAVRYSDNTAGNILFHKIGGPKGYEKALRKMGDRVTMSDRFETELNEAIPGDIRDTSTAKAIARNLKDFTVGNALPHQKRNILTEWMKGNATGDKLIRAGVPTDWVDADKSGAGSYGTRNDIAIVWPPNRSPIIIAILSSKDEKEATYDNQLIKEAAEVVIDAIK
From the text: *^1 Derived from Bacillus cereus, produced by Calbio Chemical Co. of […]

[3] = Solubility; format: physicochemical
[4] = system: Bacillus cereus FDA 5; experiment: Antimicrobial spectrum, minimal inhibitory concentration; format: cell-based; details: FDA5, Bacto Antibiotic Medium 3 / yeast extract / agar medium, about 10^6 colony forming units/ml
Description: (§1) (Note 1): As the culture medium, there was used a medium consisting of
(§2) 17.5 g of Bacto Antibiotic Medium 3 (produced by Difco Laboratories of
(§3) U.S.A.), 5.0 g of Bacto Yeast extract (produced by Difco Laboratories of
(§4) U.S.A.), […] of Bacto Agar (produced by Difco Laboratories of U.S.A.)
(§5) and 1000 ml of distilled water (without adjustment of pH), while as the
(§6) bacterial inoculation solution, there was used about 10^6 colony
(§7) 17.5 g of Bacto Antibiotic Medium 3 (produced by Difco Laboratories,
(§8) U.S.A.), […] of Bacto Yeast extract (produced by Difco Laboratories,
(§9) U.S.A.), 20 g of Bacto Agar (produced by Difco Laboratories, U.S.A.) and
(§10) 1000 ml of distilled water (without adjustment of pH), while as the
(§11) bacterial inoculation solution, there was employed about 10^6 colony

[5] = system: Serratia marcescens IFO 12648; experiment: as above; format: cell-based; details: IFO12648, Bacto Antibiotic Medium 3 / yeast extract / agar medium, about 10^6 colony forming units/ml
Description: as §1, §2, §3, §4, §5, §6, §7, §8, §9, §10, §11

[6] = system: Proteus morganii IFO 3168; experiment: as above; format: cell-based; details: Morganella morganii, IFO3168, Bacto Antibiotic Medium 3 / yeast extract / agar medium, about 10^6 colony forming units/ml
Description: as §1, §2, §3, §4, §5, §6, §7, §8, §9, §10, §11

[7] = system: Escherichia coli NIHJ JC 2; experiment: as above; format: cell-based; details: NIHJJC2, Bacto Antibiotic Medium 3 / yeast extract / agar medium, about 10^6 colony forming units/ml
Description: as §1, §2, §3, §4, §5, §6, §7, §8, §9, §10, §11

[8] = system: Citrobacter freundii IFO 12681; experiment: as above; format: cell-based; details: IFO12681, Bacto Antibiotic Medium 3 / yeast extract / agar medium, about 10^6 colony forming units/ml
Description: as §1, §2, §3, §4, §5, §6, §7, §8, §9, §10, §11

[9] = system: Klebsiella pneumoniae IFO 3317; experiment: as above; format: cell-based; details: IFO3317, Bacto Antibiotic Medium 3 / yeast extract / agar medium, about 10^6 colony forming units/ml
Description: as §1, §2, §3, §4, §5, §6, §7, §8, §9, §10, §11

[10] = system: Micrococcus luteus IFO 12708; experiment: as above; format: cell-based; details: IFO12708, Bacto Antibiotic Medium 3 / yeast extract / agar medium, about 10^6 colony forming units/ml
Description: as §1, §2, §3, §4, §5, §6, §7, §8, §9, §10, §11

[11] = system: Acinetobacter calcoaceticus IFO 13006; experiment: as above; format: cell-based; details: IFO13006, Bacto Antibiotic Medium 3 / yeast extract / agar medium, about 10^6 colony forming units/ml
Description: as §1, §2, §3, §4, §5, §6, §7, §8, §9, §10, §11

[12] = system: Alcaligenes faecalis IFO 13111; experiment: as above; format: cell-based; details: IFO13111, Bacto Antibiotic Medium 3 / yeast extract / agar medium, about 10^6 colony forming units/ml
Description: as §1, §2, §3, §4, §5, §6, §7, §8, §9, §10, §11

[13] = system: Pseudomonas aeruginosa IFO 3080; experiment: as above; format: cell-based; details: IFO3080, Bacto Antibiotic Medium 3 / yeast extract / agar medium, about 10^6 colony forming units/ml
Description: as §1, §2, §3, §4, §5, §6, §7, §8, §9, §10, §11

[14] = system: Proteus mirabilis ATCC 21100; experiment: as above; format: cell-based; details: ATCC21100, Bacto Antibiotic Medium 3 / yeast extract / agar medium, about 10^6 colony forming units/ml
Description: as §1, §2, §3, §4, §5, §6, §7, §8, §9, §10, §11

[15] = system: Bacillus subtilis NIHJ PCI 219; experiment: as above; format: cell-based; details: Bacto Antibiotic Medium 3 / yeast extract / agar medium, about 10^6 colony forming units/ml
Description: as §1, §2, §3, §4, §5, §6, §7, §8, §9, §10, §11

[16] = system: Staphylococcus aureus FDA 209P; experiment: as above; format: cell-based; details: FDA209P, Bacto Antibiotic Medium 3 / yeast extract / agar medium, about 10^6 colony forming units/ml
Description: as §1, §2, §3, §4, §5, §6, §7, §8, §9, §10, §11

[17] = system: Proteus vulgaris IFO 3988; experiment: as above; format: cell-based; details: IFO3988, Bacto Antibiotic Medium 3 / yeast extract / agar medium, about 10^6 colony forming units/ml
Description: as §1, §2, §3, §4, §5, §6, §7, §8, §9, §10, §11

[18] = system: Salmonella typhimurium IFO 12529; experiment: as above; format: cell-based; details: Salmonella enterica, Bacto Antibiotic Medium 3 / yeast extract / agar medium, about 10^6 colony forming units/ml
Description: as §1, §2, §3, §4, §5, §6, §7, §8, §9, §10, §11

[19] = target: Cephalosporinase (Enterobacter cloacae, UniProt P05364); experiment: Stability against β-lactamase (cephalosporinase), test microorganism Escherichia coli PG 8; format: biochemical; details: Cephalosporinase derived from Enterobacter cloacae, -- = No inhibition zone indicated
Cephalosporinase, sequence (P05364 21-381): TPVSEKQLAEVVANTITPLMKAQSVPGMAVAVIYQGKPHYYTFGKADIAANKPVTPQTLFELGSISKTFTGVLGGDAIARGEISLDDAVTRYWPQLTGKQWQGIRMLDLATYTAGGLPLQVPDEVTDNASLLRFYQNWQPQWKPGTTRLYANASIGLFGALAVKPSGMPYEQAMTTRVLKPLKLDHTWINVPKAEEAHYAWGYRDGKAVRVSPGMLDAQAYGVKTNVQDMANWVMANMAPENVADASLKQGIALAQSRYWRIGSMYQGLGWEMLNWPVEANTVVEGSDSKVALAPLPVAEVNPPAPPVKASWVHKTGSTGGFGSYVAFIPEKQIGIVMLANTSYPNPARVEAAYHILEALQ
From the text: *^2 Derived from Enterobacter cloacae.
*^3 No inhibition zone indicated.

[20] = system: Staphylococcus aureus 308A-1; experiment: Therapeutic effect in the experimental mouse infection; format: in vivo; details: 308A1, sc, Staphylococcus aureus 308A-1, route of administration Subcutaneous
[21] = Acute toxicity; format: in vivo; details: administered subcutaneously at a dose of 400 mg/kf
[22] = Stability in an aqueous solution; format: physicochemical
[23] = Interconversion of HPLC peaks A and B on standing in buffers; format: physicochemical; details: buffers of pH 3, 5 and 7 at room temperature
From the text: TAN-588 as obtained in this manner has two peaks on the reverse-phase HPLC. These peaks are temporarily referred to as A and B, respectively, whereby the phenomena to be described in the following are observed. […] Therefore, it is thought impossible to separate TAN-588 itself into A and B by means of the presently known separation techniques. However, the conversion of TAN-588 into the p-nitrobenzyl ester or benzhydryl derivative makes it possible for such a compound to be separated into the A type and B type of the compound, respectively.

SMILES: CO[C@@]1(NC(=O)CCC[C@@H](N)C(=O)O)C(=O)N2C(C(=O)O)=C(COC(N)=O)CS[C@@H]21 [CMC, reference compound]
inhibition zone, β-Lactamase: Without addition [1]: 34
inhibition zone, β-Lactamase: Penicillinase [2]: 34

Solubility in chloroform [3]: Sparingly soluble
Solubility in diethyl ether [3]: Sparingly soluble
Solubility in dimethylsulfoxide [3]: Sparingly soluble
Solubility in ethyl acetate [3]: Sparingly soluble
Solubility in water [3]: Soluble
SMILES: N[C@H]1CON([C@]2(C(=O)O)CCC(=O)O2)C1=O [N-deacetyl TAN-588 (A type compound)]

Solubility in chloroform [3]: Sparingly soluble
Solubility in diethyl ether [3]: Sparingly soluble
Solubility in dimethylsulfoxide [3]: Sparingly soluble
Solubility in ethyl acetate [3]: Sparingly soluble
Solubility in water [3]: Soluble
SMILES: N[C@H]1CON([C@@]2(C(=O)O)CCC(=O)O2)C1=O [N-deacetyl TAN-588 (B type compound)]

SMILES: N[C@H]1CON(C2(C(=O)O)CCC(=O)O2)C1=O (stereo partly shown) [N-deacetyl TAN-588]
inhibition zone, β-Lactamase: Without addition [1]: 22.5
MIC [4]: 50 µg/mL (≈ 217 µM)
MIC [5]: 25 µg/mL (≈ 109 µM)
MIC [6]: > 100 µg/mL
MIC [7]: 25 µg/mL (≈ 109 µM)
MIC [8]: 50 µg/mL (≈ 217 µM)
MIC [9]: 100 µg/mL (≈ 434 µM)
MIC [10]: 6.25 µg/mL (≈ 27.2 µM)
MIC [11]: 50 µg/mL (≈ 217 µM)
MIC [12]: 100 µg/mL (≈ 434 µM)
MIC [13]: 50 µg/mL (≈ 217 µM)
MIC [14]: 100 µg/mL (≈ 434 µM)
MIC [15]: 12.5 µg/mL (≈ 54.3 µM)
MIC [16]: 50 µg/mL (≈ 217 µM)
MIC [17]: 100 µg/mL (≈ 434 µM)
MIC [18]: 50 µg/mL (≈ 217 µM)
inhibition zone, β-Lactamase: Cephalosporinase [19]: 21.5
Solubility in diethyl ether [3]: Sparingly soluble
Solubility in dimethylsulfoxide [3]: Sparingly soluble
Solubility in ethyl acetate [3]: Sparingly soluble
Solubility in water [3]: Soluble
inhibition zone, β-Lactamase: Penicillinase [2]: 24.5

SMILES: CC1(C)S[C@@H]2[C@H](NC(=O)Cc3ccccc3)C(=O)N2[C@H]1C(=O)O [PCG]
inhibition zone, β-Lactamase: Without addition [1]: 22

SMILES: CC(=O)N[C@H]1CON(C2(C(=O)O)CCC(=O)O2)C1=O (stereo partly shown) [TAN-588 sodium salt]
MIC [4]: 12.5 µg/mL
MIC [5]: 50 µg/mL
MIC [6]: 100 µg/mL
MIC [7]: 50 µg/mL
MIC [8]: 100 µg/mL
MIC [9]: 100 µg/mL
MIC [10]: 0.39 µg/mL
MIC [11]: 25 µg/mL
MIC [12]: 50 µg/mL
MIC [13]: > 100 µg/mL
MIC [14]: 25 µg/mL
MIC [15]: 3.13 µg/mL
MIC [16]: 3.13 µg/mL
MIC [17]: 25 µg/mL
MIC [18]: 50 µg/mL
ED50 [20]: 25 mg/kg
acute toxicity [21]: no acute toxicity
Solubility in chloroform [3]: Sparingly soluble
Solubility in diethyl ether [3]: Sparingly soluble
Solubility in dimethylsulfoxide [3]: Soluble
Solubility in ethyl acetate [3]: Sparingly soluble
Solubility in water [3]: Soluble
Stability in an aqueous solution ([22]; pH 3 and 7): slightly stable
Stability in an aqueous solution ([22]; pH 5): Stable
Stability in an aqueous solution ([22]; pH 9): unstable

SMILES: CC(=O)N[C@H]1CON(C2(C(=O)O)CCC(=O)O2)C1=O (stereo partly shown) [TAN-588]
interconversion of isolated peaks A and B [23]: A turns into B, with B turning into A, about one hour later at any pH values
